# PubChem BioAssay AID2305 (GlaxoSmithKline (GSK), 2010)
# System: P. falciparum 3D7 growth, pLDH absorbance
# Assay: P. falciparum 3D7 growth inhibition, dose response, strain 3D7 (AID 2305)
row,SMILES,IC50 [nM]
1,CCOc1ccc(C=CC(=O)Nc2ccc3nc(N4CCOCC4)cc(C)c3c2)cc1OC,900
2,O=C(Nc1ccc(F)cc1)NC1CCN(c2ccnc3ccccc23)C1 (centres undefined),870
3,CS(=O)(=O)c1ccc(CCNCc2ccc(-c3ccc(CN(C(=O)C4CCCC4)C4CCN(Cc5ccccc5)CC4)cc3)nc2)cc1,830
4,CC(=O)Nc1ccc(Nc2ncc([N+](=O)[O-])c(Nc3ccccc3C(N)=O)n2)cc1,370
5,CC(=O)c1ccc(NC(=O)C2c3ccccc3C(=O)N(CC(C)C)C2c2cccs2)cc1 (centres undefined),1320
6,COC(=O)Nc1cc(C(F)(F)F)ccc1N1CCCC(NS(=O)(=O)c2ccc(C(C)(C)C)cc2)C1 (centres undefined),380
7,N#Cc1ccc(CN2CCCN(c3ccc(NC(=O)c4ccc(F)cc4)cc3)CC2)cc1,1280
8,Fc1ccc2nccc(NN=CC=Cc3ccccc3)c2c1,680
9,N#Cc1ccc(CN2CCC(Oc3ccc(NC(=O)c4cccs4)cc3)C2)cc1 (centres undefined),950
10,Cc1cccnc1CNc1nccc2c(C)c(C)[nH]c12,850
11,Cc1ccc(Cc2cnc(NCCSCc3ccc(CN4CCOCC4)o3)[nH]c2=O)cn1,1070
12,COc1ccc2nc3cc(Cl)ccc3c(Nc3ccc(O)c(CNC(C)C)c3)c2c1,140
13,Cc1nc(-c2ccc(-c3ccc(C(=O)Nc4ccc(I)c(OCC5CCCN5C)c4)cc3)c(C)c2)no1 (centres undefined),30
14,CCS(=O)(=O)Nc1ccc2[nH]cc(C3CCN(CCC4CCN(C(=O)/C=C/c5ccc(Cl)c(Cl)c5)CC4)CC3)c2c1,530
15,CCOc1ccc2nc3cc([N+](=O)[O-])ccc3c(N)c2c1,140
16,CCCCCCCN(CCCCCCC)CCCC(=O)Nc1ccnc2ccc(OC)cc12,150
17,COc1cc(-c2nc(-c3ccc4c(c3)CCC4=NO)c(-c3ccncc3)[nH]2)ccc1OCCN1CCCCC1,790
18,NCC(=O)Nc1cccc(Nc2nccc(-c3c(-c4cccc(NC(=O)c5ccccc5)c4)nn4ccccc34)n2)c1,430
19,N#Cc1ccc2c(c1)CCN(CCC1CCC(NC(=O)c3ccc(-c4ccccn4)s3)CC1)CC2 (centres undefined),1010
20,COc1cc(-c2nc(-c3ccccc3)c(-c3ccccc3)[nH]2)cc(OC)c1O,770

row,SMILES,IC50 [nM]
1,O=[N+]([O-])c1ccc(Nc2nc(NN=Cc3cc(Cl)cc(Cl)c3O)nc(Nc3ccccc3)n2)cc1,670
2,COc1cc(-c2ccc3c(-c4ccc(C(=O)N5CCN(C)CC5)cc4)[nH]nc3n2)cc(OC)c1OC,1330
3,CCNC(=NCc1ccccc1)NCCCCCCNC(=NCc1ccccc1)NCC,700
4,COc1ccc(NC(=O)C2c3ccccc3C(=O)N(C3CCCC3)C2c2cccs2)c(OC)c1 (centres undefined),1480
5,CCCc1cc(OC)c(CC2c3cc(O)c(Cl)cc3C(c3ccccc3)CN2C)cc1OC (centres undefined),430
6,Cc1ccc(N2C(N)=NC(N)=NC2(C)C)cc1,40
7,COc1cc(C(=O)NC2CCc3ccccc32)cc(Cl)c1OC (centres undefined),1100
8,O=S(=O)(Nc1cccc(CCN2CCCCC2CCN2CCCC2)c1)c1ccc(Oc2ccccc2)cc1 (centres undefined),1050
9,CCCCn1c(C)c(C(=O)OCC)c2cc(OC(C)=O)c(Br)cc21,630
10,COc1ccc2c(NN=Cc3ccccc3Cl)cc(C)nc2c1,370
11,O=[N+]([O-])c1ccc2nc(Nc3ccc(Cl)c(Cl)c3)c(Nc3ccc(Cl)c(Cl)c3)nc2c1,790
12,Cc1cc(N[C@@H](Cc2ccccc2)C(=O)NC2CCCC2)nc(NCCc2cccs2)n1,1400
13,CCc1cc(NCc2ccncc2)nc(Nc2ccc(F)cc2)n1,1330
14,Cc1nnsc1C(=O)Nc1cccc(-c2ccc(-c3nc4ccc(F)cc4[nH]3)s2)c1,890
15,CC(C)(C)c1ccc(NC(=O)c2ccc(CN3CCCN(Cc4cccc(Cl)c4)CC3)cc2)cc1,970
16,Cc1[nH]c(C)c(-c2ccc(-c3ccc(OC(F)(F)F)cc3)nc2)c(=O)c1Br,250
17,COc1ccc(NC(=O)[C@H](CC(C)C)Nc2cc(C)nc(NCc3ccccc3C)n2)cc1,890
18,CO/C(=C\C=C\c1cc2cc(Cl)c(Cl)cc2[nH]1)C(=O)N[C@H]1CN2CCC1CC2,1210
19,CS(=O)(=O)N(c1ccccc1)c1cc(C(=O)N[C@@H](Cc2ccccc2)[C@H](O)CNC2CC2)cc(N2CCCC2=O)c1,300
